Converted amounts (≈) assume the structure as drawn.
Assays:
Assay in all cases: In vitro antibacterial evaluation: minimum inhibitory concentration (MIC), broth dilution method
Format in all cases: cell-based
[1] = tested on: Escherichia coli; conditions: 5×10^5 CFU/mL, 18 hours at 35° C.
Description: (§1) The minimum inhibitory concentration (MIC), the lowest concentration of the antibiotic which inhibits growth of the test organism, is determined by the broth dilution method using Muller-Hinton II […] (Baltimore Biological Laboratories) following the recommendations of the National Committee for Clinical Laboratory Standards [Methods for dilution antimicrobial susceptibility tests for bacteria that grow aerobically, approved standard M7-A2, National Committee for Clinical Laboratory Standards, Villanova, Pa].
(§2) An inoculum level of 5×10^5 CFU/mL, and a range of antibiotic concentrations (64-0.06 μg/mL) is used. […] The test organisms include a spectrum of Gram-positive bacteria comprised of Staphylococcus sp., Streptococcus sp. and Enterococcus sp. These organisms include recent clinical isolates that are resistant to methicillin, penicillin and/or vancomycin.

[2] = tested on: Enterococcus sp.; conditions: broth dilution, 5×10^5 CFU/mL, 18 hours at 35° C.
Description: as §1, §2

[3] = tested on: Streptococcus sp.; conditions: broth dilution, 5×10^5 CFU/mL, 18 hours at 35° C.
Description: as §1, §2

[4] = tested on: Staphylococcus sp.; conditions: for MIC Staphylococcus aureus (ATCC 29213): strain ATCC 29213; for MIC Staphylococcus aureus (GC 1131): strain GC 1131; for MIC Staphylococcus aureus (GC 3051): strain GC 3051; for MIC Staphylococcus aureus (GC 3053): strain GC 3053; for MIC Staphylococcus aureus (GC 4541): strain GC 4541; for MIC Staphylococcus aureus (GC 4542): strain GC 4542; for MIC Staphylococcus aureus-SMITH (GC 4543): strain GC 4543; for MIC Staphylococcus aureus (GC 4544): strain GC 4544; for MIC Staphylococcus aureus (GC 4545): strain GC 4545; for MIC Staphylococcus haemolyticus (GC 4546): strain GC 4546; for MIC Coagulase Negative Staphylococcus (GC 4547): strain GC 4547; for MIC Coagulase Negative Staphylococcus (GC 4548): strain GC 4548; for MIC Coagulase Negative Staphylococcus (GC 4549): strain GC 4549; for MIC Coagulase Negative Staphylococcus (GC 4551): strain GC 4551; for MIC Coagulase Negative Staphylococcus (GC 6257): strain GC 6257
Description: as §1, §2

[5] = broth dilution, 18 hours at 35° C.

MIC Escherichia coli (ATCC 25922) [1]: 32 µg/mL (≈ 22.7 µM)
MIC Escherichia coli (GC 4559) [1]: 32 µg/mL (≈ 22.7 µM)
MIC Escherichia coli (GC 4560) [1]: 1 µg/mL (≈ 0.708 µM)
MIC Enterococccus avium (GC 4558) [2]: 0.25 µg/mL (≈ 0.177 µM)
MIC Enterococccus faecalis (ATCC 29212) [2]: 4 µg/mL (≈ 2.83 µM)
MIC Enterococccus faecalis (GC 2691) [2]: 4 µg/mL (≈ 2.83 µM)
MIC Enterococccus faecalis (GC 3059) [2]: 4 µg/mL (≈ 2.83 µM)
MIC Enterococccus faecalis (GC 4552) [2]: 4 µg/mL (≈ 2.83 µM)
MIC Enterococccus faecalis (GC 4553) [2]: 4 µg/mL (≈ 2.83 µM)
MIC Enterococccus faecalis (GC 4554) [2]: 4 µg/mL (≈ 2.83 µM)
MIC Enterococccus faecalis (GC 6189) [2]: 4 µg/mL (≈ 2.83 µM)
MIC Enterococccus faecium (GC 2243) [2]: 4 µg/mL (≈ 2.83 µM)
MIC Enterococccus faecium (GC 4556) [2]: 4 µg/mL (≈ 2.83 µM)
MIC Enterococccus faecium (GC 4557) [2]: 1 µg/mL (≈ 0.708 µM)
MIC Enterococcus faecalis (GC 2242) [2]: 4 µg/mL (≈ 2.83 µM)
MIC Streptococcus agalactiae (GC 4564) [3]: 1 µg/mL (≈ 0.708 µM)
MIC Streptococcus pneumoniae (GC 1894) [3]: <0.06 µg/mL
MIC Streptococcus pneumoniae (GC 4565) [3]: <0.06 µg/mL
MIC Streptococcus pneumonine (ATCC 6301) [3]: <0.06 µg/mL
MIC Streptococcus pyogenes (GC 4563) [3]: 0.12 µg/mL (≈ 0.085 µM)
MIC Staphylococcus aureus (ATCC 29213) [4]: 2 µg/mL (≈ 1.42 µM)
MIC Staphylococcus aureus (ATCC 29213) [4, 5]: 2 µg/mL (≈ 1.42 µM)
MIC Staphylococcus aureus (GC 1131) [4]: 2 µg/mL (≈ 1.42 µM)
MIC Staphylococcus aureus (GC 1131) [4, 5]: 2 µg/mL (≈ 1.42 µM)
MIC Staphylococcus aureus (GC 3051) [4]: 2 µg/mL (≈ 1.42 µM)
MIC Staphylococcus aureus (GC 3051) [4, 5]: 2 µg/mL (≈ 1.42 µM)
MIC Staphylococcus aureus (GC 3053) [4]: 2 µg/mL (≈ 1.42 µM)
MIC Staphylococcus aureus (GC 3053) [4, 5]: 2 µg/mL (≈ 1.42 µM)
MIC Staphylococcus aureus (GC 4541) [4]: 2 µg/mL (≈ 1.42 µM)
MIC Staphylococcus aureus (GC 4541) [4, 5]: 2 µg/mL (≈ 1.42 µM)
MIC Staphylococcus aureus (GC 4542) [4]: 1 µg/mL (≈ 0.708 µM)
MIC Staphylococcus aureus (GC 4542) [4, 5]: 1 µg/mL (≈ 0.708 µM)
MIC Staphylococcus aureus-SMITH (GC 4543) ([4]; 18 hours at 35° C.): 2 µg/mL (≈ 1.42 µM)
MIC Staphylococcus aureus-SMITH (GC 4543) [4, 5]: 2 µg/mL (≈ 1.42 µM)
MIC Staphylococcus aureus (GC 4544) [4]: 2 µg/mL (≈ 1.42 µM)
MIC Staphylococcus aureus (GC 4544) [4, 5]: 2 µg/mL (≈ 1.42 µM)
MIC Staphylococcus aureus (GC 4545) [4]: 2 µg/mL (≈ 1.42 µM)
MIC Staphylococcus aureus (GC 4545) [4, 5]: 2 µg/mL (≈ 1.42 µM)
MIC Coagulase Negative Staphylococcus (GC 4547) [4]: 2 µg/mL (≈ 1.42 µM)
MIC Coagulase Negative Staphylococcus (GC 4547) [4, 5]: 2 µg/mL (≈ 1.42 µM)
MIC Coagulase Negative Staphylococcus (GC 4548) [4]: 1 µg/mL (≈ 0.708 µM)
MIC Coagulase Negative Staphylococcus (GC 4548) [4, 5]: 1 µg/mL (≈ 0.708 µM)
MIC Coagulase Negative Staphylococcus (GC 4549) [4]: 1 µg/mL (≈ 0.708 µM)
MIC Coagulase Negative Staphylococcus (GC 4549) [4, 5]: 1 µg/mL (≈ 0.708 µM)
MIC Coagulase Negative Staphylococcus (GC 4551) [4]: 2 µg/mL (≈ 1.42 µM)
MIC Coagulase Negative Staphylococcus (GC 4551) [4, 5]: 2 µg/mL (≈ 1.42 µM)
MIC Coagulase Negative Staphylococcus (GC 6257) [4]: 1 µg/mL (≈ 0.708 µM)
MIC Coagulase Negative Staphylococcus (GC 6257) [4, 5]: 1 µg/mL (≈ 0.708 µM)
Structure (SMILES): CC(c1ccccc1)C1NC(=O)CNC(=O)C(CO)NC(=O)C(C(O)C2CNC(=N)N2C2OC(CO)C(O)C(O)C2O)NC(=O)C(C(O)C2CNC(=N)N2)NC(=O)C(Cc2ccc(OC3OC(CO)C(OC4OC5COC(CCc6ccccc6)OC5C(O)C4O)C(O)C3O)cc2)NC1=O (centres unmarked) [Example 124]
MIC Staphylococcus haemolyticus (GC 4546) [4]: 2 µg/mL (≈ 1.42 µM)
MIC Staphylococcus haemolyticus (GC 4546) [4, 5]: 2 µg/mL (≈ 1.42 µM)
